Experimental data: patent US11690854B2, “Methods of treating heavy menstrual bleeding” (priority 2018, dated 2023)
Marks after values point to notes of the source that are not given here.

Experiments:
[1] = target: efflux transporter P-glycoprotein (P-gp) (Homo sapiens, UniProt P08183); assay: Drug interaction potential: P-gp
Method: Elagolix is an inhibitor of efflux transporter P-glycoprotein (P-gp) at 200 mg BID or higher, such as 300 mg BID or 400 mg QD or 600 mg QD. Co-administration with ELAGOLIX 200 mg BID may increase plasma concentration of drugs that are substrates of P-gp.
(§1) Elagolix is a substrate of CYP3A, P-gp, and organic anion transporting polypeptide (OATP)1B1. Clinically meaningful interactions are not expected when ELAGOLIX is co-administered with drugs that inhibit CYP3A or P-gp.

QTc interval = assay: Thorough QT study; assay type: in vivo; conditions: up to 1200 mg; 17- to 23-fold of therapeutic concentrations; active control moxifloxacin 400 mg
Method: The effect of elagolix (up to 1200 mg) on QTc interval was evaluated in an active-controlled (moxifloxacin 400 mg) thorough QT study.

[2] = system: premenopausal women with HMB and UF; assay: Phase 2b trial, post hoc subgroup with uterine fibroids and non-dominant adenomyosis; assay type: in vivo, human; conditions: 6 months
Method: Patients and Methods: […] Elagolix studied in this clinical trial comprised the sodium salt of Compound A. All subjects were evaluated with ultrasound and a subset volunteered to also be evaluated by MRI. […] Efficacy and safety were evaluated post hoc in a subgroup of women who had confirmed non-dominant adenomyosis (ultrasound/MRI) at baseline. Menstrual blood loss (MBL) was quantified from sanitary products (alkaline hematin). […] Adverse events (AEs) were recorded.

[3] = system: women with moderate to severe endometriosis-related pain; assay: PROMIS Fatigue SF-6a in Phase III study of endometriosis pain; assay type: in vivo, human
Method: A Phase III study was conducted to assess the effects of elagolix for clinically meaningful reductions in pain and other symptoms. Data provided examined the impact of elagolix on fatigue in women with moderate to severe endometriosis-related pain. […] Fatigue was assessed using the Patient Reported Outcome Measurement Information System (PROMIS®), Fatigue Short Form (SF) 6a. Six items assessed a range of self-reported symptoms from mild, subjective feelings of tiredness to overwhelming, sustained sense of exhaustion that likely decreases one's ability to execute daily activities and function normally. The domain was divided into the experience of fatigue (frequency, duration and intensity) and impact of fatigue on physical, mental and social activities. All items assessed fatigue over the previous seven days. […] Lower scores indicated less fatigue. Post-hoc, Fatigue SF-6a raw scores were converted to T-scores. The T-score rescales […] the raw score into a standardized score such that the general population has a mean of 50 and a standard deviation (SD) of 10. Analysis: […] ANCOVA controlled for treatment as main effect. Baseline Fatigue SF-6a T-score included as a covariate.

women with endometriosis = assay: Six Phase 2 studies of elagolix for endometriosis associated pain; assay type: in vivo, human
Method: Efficacy was assessed for dysmenorrhea (DYS), nonmenstrual pelvic pain (NMPP), dyspareunia, and general pelvic pain with a range of instruments. Additional efficacy assessments included quality of life and the use of analgesics for control of endometriosis pain. Across these Phase 2 studies, the enrollment criteria were similar and were intended to select premenopausal women aged 18 to 49 years of age with endometriosis confirmed by visual inspection (laparoscopy or laparotomy within 5 to 8 years of screening) who experienced moderate to severe endometriosis-associated pain. Women were included if they had regular menstrual cycles and no significant uterine fibroids or pelvic lesions. Total daily doses of elagolix ranging from 75 to 250 mg were evaluated across a range of pain instruments measuring […], or general pelvic pain (including patient global impression of change), during 12 or 24 weeks of treatment. […] Overall, 475 women have received elagolix for at least 12 weeks and 278 women for a period of at least 24 weeks. The majority of women were Caucasian (78.9% to 100%), while approximately 7% were black and approximately 4.5% were Hispanic. The mean age across these six Phase 2 studies was 31 to 33 years (range 18 to 48 years) and mean body mass index (BMI) of 23 to 28 kg/m. […] In addition, the majority were receiving analgesic medications (nonsteroidal anti-inflammatory drugs, opioids, and/or other) prior to study enrollment

[4] = Mutagenicity studies using in vitro and in vivo test systems
Description: Mutagenicity studies have been performed with elagolix using in vitro and in vivo test systems.

rats = assay: 2-year carcinogenicity study in rats; assay type: in vivo; conditions: rat
Description: The rat tumors were identified as being species-specific and of negligible relevance to humans. This conclusion is based on a follow-on thyroid and hepatic effects-related investigative study performed to document the possibility that thyroid and liver tumors may be specific to rat and occurred via induction of hepatic drug metabolizing enzymes at the high dose.

[5] = system: cytochrome P450 (CYP) 3A enzyme; assay: Drug interaction potential: CYP3A
Description: Co-administration with ELAGOLIX may decrease plasma concentration of drugs that are substrates of CYP3A.
as §1

[6] = system: premenopausal women with endometriosis with associated pain; assay: Phase 3 Study EM-II (and extension EM-IV); assay type: in vivo, human
Description: Each placebo-controlled study assessed the reduction in endometriosis-associated pain over 6 months of treatment. More than 75 percent of women who completed Study EM-I and EM-II enrolled in the extension studies for an additional 6 month treatment period. Subjects were followed for up to 12 months post-treatment. The co-primary efficacy endpoints were the proportion of responders for dysmenorrhea and pelvic pain not related to menses (also known as non-menstrual pelvic pain [NMPP]) at Month 3 compared to placebo. The primary analysis independently evaluated these endpoints using a daily diary that asked patients to assess their pain and its impact on their daily activities, over the previous 24 hours. […] Women were defined as responders if they experienced clinically meaningful reduction in dysmenorrhea and/or NMPP with no increased analgesic use for endometriosis associated pain. Dyspareunia was evaluated as a secondary endpoint using the Daily Endometriosis Pain Impact Scale.

Chain of efflux transporter P-glycoprotein (P-gp) (P08183 whole entry): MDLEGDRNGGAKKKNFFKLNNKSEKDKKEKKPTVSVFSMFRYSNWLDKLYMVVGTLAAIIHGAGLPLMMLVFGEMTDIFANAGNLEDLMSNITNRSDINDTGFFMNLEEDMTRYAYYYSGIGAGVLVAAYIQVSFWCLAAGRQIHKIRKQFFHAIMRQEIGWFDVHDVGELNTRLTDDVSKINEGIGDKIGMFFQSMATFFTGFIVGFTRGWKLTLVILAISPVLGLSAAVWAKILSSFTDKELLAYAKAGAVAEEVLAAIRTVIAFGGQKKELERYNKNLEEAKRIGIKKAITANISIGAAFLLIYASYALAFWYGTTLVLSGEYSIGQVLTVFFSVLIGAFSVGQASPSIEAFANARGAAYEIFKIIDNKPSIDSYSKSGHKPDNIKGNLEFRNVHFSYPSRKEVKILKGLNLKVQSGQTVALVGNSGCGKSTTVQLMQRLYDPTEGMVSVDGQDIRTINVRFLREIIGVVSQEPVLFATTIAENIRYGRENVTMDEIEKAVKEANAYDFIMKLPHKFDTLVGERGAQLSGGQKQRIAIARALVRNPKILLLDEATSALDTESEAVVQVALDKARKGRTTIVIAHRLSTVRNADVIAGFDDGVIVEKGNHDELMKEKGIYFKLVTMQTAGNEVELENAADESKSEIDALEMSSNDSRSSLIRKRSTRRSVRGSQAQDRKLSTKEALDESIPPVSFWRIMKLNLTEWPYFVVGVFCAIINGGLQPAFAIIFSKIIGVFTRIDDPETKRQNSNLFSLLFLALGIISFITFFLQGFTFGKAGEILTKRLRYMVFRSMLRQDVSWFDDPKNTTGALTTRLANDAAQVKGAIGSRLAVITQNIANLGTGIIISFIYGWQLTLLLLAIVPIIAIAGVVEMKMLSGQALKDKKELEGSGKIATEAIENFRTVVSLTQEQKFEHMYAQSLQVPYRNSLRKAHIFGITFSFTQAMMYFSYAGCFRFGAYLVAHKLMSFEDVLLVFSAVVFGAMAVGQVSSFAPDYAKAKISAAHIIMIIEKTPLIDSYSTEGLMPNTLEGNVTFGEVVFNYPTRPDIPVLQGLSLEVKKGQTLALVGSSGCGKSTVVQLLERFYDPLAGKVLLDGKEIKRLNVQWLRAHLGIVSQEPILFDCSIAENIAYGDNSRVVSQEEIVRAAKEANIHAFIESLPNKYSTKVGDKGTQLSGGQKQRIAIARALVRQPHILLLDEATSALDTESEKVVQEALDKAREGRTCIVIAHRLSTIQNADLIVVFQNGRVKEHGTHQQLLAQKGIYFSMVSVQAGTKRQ

COc1cccc(-c2c(C)n(Cc3c(F)cccc3C(F)(F)F)c(=O)n(C[C@H](NCCCC(=O)O)c3ccccc3)c2=O)c1F [Elagolix, 4-((R)-2-[5-(2-fluoro-3-methoxy-phenyl)-3-(2-fluoro-6-trifluoromethyl-benzyl)-4-methyl-2,6-dioxo-3,6-dihydro-2H-pyrimidin-1-yl]-1-phenyl-ethylamino)-butyric acid]
Substrate of P-gp [1]: substrate | Inhibition of P-gp ([1]; at 200 mg BID or higher, such as 300 mg BID or 400 mg QD or 600 mg QD): inhibitor | Effect on QTc interval (QTc interval): does not prolong the QTc interval | Proportion of women with ≥50% reduction from baseline in HMB and <80 mL MBL in the last 28 days of treatment ([2]; Cohort 1 (300 mg BID, with or without E2/NETA), placebo 40% (n=10)): 80% | Proportion of women with ≥50% reduction from baseline in HMB and <80 mL MBL in the last 28 days of treatment ([2]; Cohort 2 (600 mg QD, with or without E2/NETA), placebo 13% (n=16)): 92% | PROMIS Fatigue SF-6a T-Score ([3]; 200 mg, Month 1): statistically significant reduction in fatigue | PROMIS Fatigue SF-6a T-Score ([3]; both doses (150 mg QD, 200 mg BID), Months 3 and 6): Statistically significant reductions relative to placebo | Safety and tolerability (women with endometriosis; all daily doses (100 to 250 mg)): safe and well tolerated | Incidence of AEs that led to discontinuations (women with endometriosis; completed Phase 2 studies): 4.8% | Effect on DYS and NMPP versus DMPA-SC (women with endometriosis; daily dose of 150 mg): comparable effect to subcutaneous depot medroxyprogesterone acetate (DMPA-SC) | Effect versus leuprorelin (women with endometriosis; daily doses of 150 mg and 250 mg): less effect compared with leuprorelin | Reduction in endometriosis-associated pain (women with endometriosis; daily doses of 100 to 250 mg, 12 or 24 weeks): clinically meaningful reductions in endometriosis-associated pain | Days of bleeding per month (eDiary) (women with endometriosis; versus placebo): fewer days of bleeding per month compared with patients who received placebo | Mutagenic or clastogenic potential [4]: no evidence of a mutagenic or clastogenic potential | Margin of safety at the high dose with respect to 200 mg BID in women (rats; both, in vivo, 2 years): 13 fold | Tumors in 2-year carcinogenicity study (rats; high dose, identified as species-specific): increase in thyroid (male and female) and liver (males only) tumors | Induction of CYP3A [5]: weak to moderate inducer | Substrate of CYP3A [5]: substrate | Proportion of responders for Dyspareunia (Daily Endometriosis Pain Impact Scale) ([6]; 150 mg QD, Month 3, n/N 70/159, placebo 39.5): 44.0% | Proportion of responders for dysmenorrhea (Daily Endometriosis Pain Impact Scale) ([6]; 150 mg QD, Month 3, n/N 96/221, placebo 22.7): 43.4%*** | Proportion of responders for Non-Menstrual Pelvic Pain (Daily Endometriosis Pain Impact Scale) ([6]; 150 mg QD, Month 3, n/N 110/221, placebo 36.5): 49.8** % | Proportion of responders for Dyspareunia (Daily Endometriosis Pain Impact Scale) ([6]; 150 mg QD, Month 6, n/N 65/163, placebo 39.4): 39.9% | Proportion of responders for dysmenorrhea (Daily Endometriosis Pain Impact Scale) ([6]; 150 mg QD, Month 6, n/N 102/221, placebo 25.4): 46.2%*** | Proportion of responders for Non-Menstrual Pelvic Pain (Daily Endometriosis Pain Impact Scale) ([6]; 150 mg QD, Month 6, n/N 114/221, placebo 40.6): 51.6%** | Proportion of responders for Dyspareunia (Daily Endometriosis Pain Impact Scale) ([6]; 200 mg BID, Month 3, n/N 87/162, placebo 39.5): 53.7** % | Proportion of responders for Non-Menstrual Pelvic Pain (Daily Endometriosis Pain Impact Scale) ([6]; 200 mg BID, Month 3, n/N 130/225, placebo 36.5): 57.8*** % | Proportion of responders for dysmenorrhea (Daily Endometriosis Pain Impact Scale) ([6]; 200 mg BID, Month 3, n/N 163/225, placebo 22.7): 72.4*** % | Proportion of responders for Dyspareunia (Daily Endometriosis Pain Impact Scale) ([6]; 200 mg BID, Month 6, n/N 92/165, placebo 39.4): 55.8*** % | Proportion of responders for Non-Menstrual Pelvic Pain (Daily Endometriosis Pain Impact Scale) ([6]; 200 mg BID, Month 6, n/N 140/225, placebo 40.6): 62.2*** % | Proportion of responders for dysmenorrhea (Daily Endometriosis Pain Impact Scale) ([6]; 200 mg BID, Month 6, n/N 173/225, placebo 25.4): 76.9*** %
